Experimental data from ChEMBL document CHEMBL1201862, “PubChem BioAssay data set” (2004).
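Briefly, cells in 96-well plates were exposed to five compound concentrations for 48 h, and endpoints were estimated by linear interpolation. Here, GI50 denotes the concentration required for 50% inhibition of growth.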 Active and inactive are the calls of the source. Cut-off read from the data, not from the text of the source: active = GI50 up to about 1.1 µM and inactive = higher.

Legend:
Assay in all cases: NCI-60 cell line screen, 48 h
UO-31 = tested on: UO-31
OVCAR-4 = tested on: OVCAR-4
786-0 = tested on: 786-0
HL-60 = tested on: HL-60
OVCAR-3 = tested on: OVCAR-3
IGROV-1 = tested on: IGROV-1
MDA-N = tested on: MDA-N
HCC 2998 = tested on: HCC 2998
KM12 = tested on: KM12
SF-539 = tested on: SF-539
A498 = tested on: A498
MOLT-4 = tested on: MOLT-4
RXF 393 = tested on: RXF 393
LOX IMVI = tested on: LOX IMVI
SF-268 = tested on: SF-268
UACC-257 = tested on: UACC-257
PC-3 = tested on: PC-3
SW-620 = tested on: SW-620
NCI-H460 = tested on: NCI-H460
MCF7 = tested on: MCF7
HOP-92 = tested on: HOP-92
HCT-15 = tested on: HCT-15
OVCAR-5 = tested on: OVCAR-5
EKVX = tested on: EKVX
SK-OV-3 = tested on: SK-OV-3
CCRF-CEM = tested on: CCRF-CEM
DU-145 = tested on: DU-145
UACC-62 = tested on: UACC-62
NCI-H522 = tested on: NCI-H522
SK-MEL-5 = tested on: SK-MEL-5
OVCAR-8 = tested on: OVCAR-8
SF-295 = tested on: SF-295
K562 = tested on: K562
SR = tested on: SR
SK-MEL-2 = tested on: SK-MEL-2
Malme-3M = tested on: Malme-3M
SNB-19 = tested on: SNB-19
ACHN = tested on: ACHN
HCT-116 = tested on: HCT-116
NCI-H23 = tested on: NCI-H23
U-251 = tested on: U-251
Hs-578T = tested on: Hs-578T
TK-10 = tested on: TK-10
SK-MEL-28 = tested on: SK-MEL-28
HOP-62 = tested on: HOP-62
NCI/ADR-RES = tested on: NCI/ADR-RES
RPMI-8226 = tested on: RPMI-8226
HT-29 = tested on: HT-29
CAKI-1 = tested on: CAKI-1
MDA-MB-435 = tested on: MDA-MB-435
SN12C = tested on: SN12C
A549 = tested on: A549
T47D = tested on: T47D
M14 = tested on: M14
BT-549 = tested on: BT-549
COLO 205 = tested on: COLO 205
SNB-75 = tested on: SNB-75
MDA-MB-231 = tested on: MDA-MB-231
NCI-H226 = tested on: NCI-H226

NC(=O)CCSC(CC(=O)c1ccc(Cl)cc1)c1ccc(Cl)cc1 (stereo not given)
GI50 (UO-31): 26.7 µM (inactive) | GI50 (OVCAR-4): 16.8 µM (inactive) | GI50 (786-0): 30 µM (inactive) | GI50 (HL-60): 6.97 µM (inactive) | GI50 (OVCAR-3): 19.2 µM (inactive) | GI50 (IGROV-1): 16.2 µM (inactive) | GI50 (MDA-N): 16.7 µM (inactive) | GI50 (HCC 2998): 18.2 µM (inactive) | GI50 (KM12): 6.11 µM (inactive) | GI50 (SF-539): 19.7 µM (inactive) | GI50 (A498): 22.5 µM (inactive) | GI50 (MOLT-4): 10.4 µM (inactive) | GI50 (RXF 393): 17.9 µM (inactive) | GI50 (LOX IMVI): 12.1 µM (inactive) | GI50 (SF-268): 27.8 µM (inactive) | GI50 (UACC-257): 27.7 µM (inactive) | GI50 (PC-3): 34.6 µM (inactive) | GI50 (SW-620): 3.08 µM (inactive) | GI50 (NCI-H460): 35.9 µM (inactive) | GI50 (MCF7): 5.08 µM (inactive) | GI50 (HOP-92): 15 µM (inactive) | GI50 (HCT-15): 10.5 µM | GI50 (OVCAR-5): 32.7 µM (inactive) | GI50 (EKVX): 28.2 µM (inactive) | GI50 (SK-OV-3): 38.1 µM (inactive) | GI50 (CCRF-CEM): 2.93 µM (inactive) | GI50 (DU-145): 27.5 µM (inactive) | GI50 (UACC-62): 16.8 µM (inactive) | GI50 (NCI-H522): 23.2 µM (inactive) | GI50 (SK-MEL-5): 17.2 µM (inactive) | GI50 (OVCAR-8): 16.3 µM (inactive) | GI50 (SF-295): 25.2 µM (inactive) | GI50 (K562): 7.1 µM (inactive) | GI50 (SR): 4.06 µM (inactive) | GI50 (SK-MEL-2): 24.3 µM (inactive) | GI50 (Malme-3M): 24.9 µM (inactive) | GI50 (SNB-19): 32.5 µM (inactive) | GI50 (ACHN): 34.7 µM (inactive) | GI50 (HCT-116): 14.7 µM (inactive) | GI50 (NCI-H23): 32.4 µM (inactive) | GI50 (U-251): 16.2 µM (inactive) | GI50 (Hs-578T): 46.5 µM (inactive) | GI50 (TK-10): 48 µM (inactive) | GI50 (SK-MEL-28): 28.4 µM (inactive) | GI50 (HOP-62): 28.1 µM (inactive) | GI50 (NCI/ADR-RES): 22.8 µM (inactive) | GI50 (RPMI-8226): 2.21 µM (inactive) | GI50 (HT-29): 19.9 µM (inactive) | GI50 (CAKI-1): 12.4 µM (inactive) | GI50 (MDA-MB-435): 16 µM (inactive) | GI50 (SN12C): 28.2 µM (inactive) | GI50 (A549): 29.9 µM (inactive) | GI50 (T47D): 19.1 µM (inactive) | GI50 (M14): 27.2 µM (inactive) | GI50 (BT-549): 36.1 µM (inactive) | GI50 (COLO 205): 33 µM (inactive) | GI50 (SNB-75): 40.1 µM (inactive) | GI50 (MDA-MB-231): 40.2 µM (inactive) | GI50 (NCI-H226): 36 µM (inactive)

O=C1N[C@@H]2c3c(Br)sc(Br)c3C(=O)[C@@H]2O1
GI50 (UO-31): 10.1 µM (inactive) | GI50 (OVCAR-4): 1.79 µM (inactive) | GI50 (786-0): 7.11 µM (inactive) | GI50 (HL-60): 0.743 µM (active) | GI50 (OVCAR-3): 1.8 µM (inactive) | GI50 (IGROV-1): 4.84 µM (inactive) | GI50 (MDA-N): 2.44 µM (inactive) | GI50 (HCC 2998): 3.69 µM (inactive) | GI50 (KM12): 10.7 µM (inactive) | GI50 (SF-539): 10.3 µM (inactive) | GI50 (A498): 16.7 µM (inactive) | GI50 (MOLT-4): 1.89 µM (inactive) | GI50 (RXF 393): 2.2 µM (inactive) | GI50 (LOX IMVI): 1.83 µM (inactive) | GI50 (SF-268): 7.66 µM (inactive) | GI50 (UACC-257): 3.32 µM (inactive) | GI50 (PC-3): 6.41 µM (inactive) | GI50 (SW-620): 1.96 µM (inactive) | GI50 (NCI-H460): 8.67 µM (inactive) | GI50 (MCF7): 3.98 µM (inactive) | GI50 (HOP-92): 5.14 µM (inactive) | GI50 (HCT-15): 1.91 µM | GI50 (OVCAR-5): 13.7 µM (inactive) | GI50 (EKVX): 2.13 µM (inactive) | GI50 (SK-OV-3): 18.7 µM (inactive) | GI50 (CCRF-CEM): 1.57 µM (inactive) | GI50 (DU-145): 15 µM (inactive) | GI50 (UACC-62): 13.2 µM (inactive) | GI50 (NCI-H522): 0.703 µM (active) | GI50 (SK-MEL-5): 6.59 µM (inactive) | GI50 (OVCAR-8): 2.11 µM (inactive) | GI50 (SF-295): 17.2 µM (inactive) | GI50 (K562): 0.887 µM (active) | GI50 (SR): 1.81 µM (inactive) | GI50 (SK-MEL-2): 16.8 µM (inactive) | GI50 (Malme-3M): 2.59 µM (inactive) | GI50 (SNB-19): 15.8 µM (inactive) | GI50 (ACHN): 1.85 µM (inactive) | GI50 (NCI-H23): 2.83 µM (inactive) | GI50 (U-251): 2.39 µM (inactive) | GI50 (Hs-578T): 19.7 µM (inactive) | GI50 (TK-10): 6 µM (inactive) | GI50 (SK-MEL-28): 2.62 µM (inactive) | GI50 (HOP-62): 22 µM (inactive) | GI50 (NCI/ADR-RES): 3.66 µM (inactive) | GI50 (RPMI-8226): 5.12 µM (inactive) | GI50 (HT-29): 1.9 µM (inactive) | GI50 (CAKI-1): 0.877 µM (active) | GI50 (MDA-MB-435): 2.47 µM (inactive) | GI50 (SN12C): 2.93 µM (inactive) | GI50 (A549): 16.4 µM (inactive) | GI50 (T47D): 9.18 µM (inactive) | GI50 (M14): 1.97 µM (inactive) | GI50 (BT-549): 8.57 µM (inactive) | GI50 (COLO 205): 2.56 µM (inactive) | GI50 (SNB-75): 6.14 µM (inactive) | GI50 (MDA-MB-231): 2.41 µM (inactive) | GI50 (NCI-H226): 9.66 µM (inactive)

COc1ccc(-c2cc(=O)c3ccc(O)cc3o2)cc1OC
GI50 (OVCAR-4): 24.7 µM (inactive) | GI50 (786-0): 56.9 µM (inactive) | GI50 (HL-60): 23.5 µM (inactive) | GI50 (OVCAR-3): 57.3 µM (inactive) | GI50 (IGROV-1): 32.9 µM (inactive) | GI50 (MDA-N): 47.6 µM (inactive) | GI50 (HCC 2998): 46.9 µM (inactive) | GI50 (KM12): 59.3 µM (inactive) | GI50 (SF-539): 23.4 µM (inactive) | GI50 (A498): 34 µM (inactive) | GI50 (MOLT-4): 25.6 µM (inactive) | GI50 (RXF 393): 5.85 µM (inactive) | GI50 (LOX IMVI): 33.5 µM (inactive) | GI50 (SF-268): > 100 µM (inactive) | GI50 (UACC-257): > 100 µM (inactive) | GI50 (PC-3): 32.3 µM (inactive) | GI50 (SW-620): 37.8 µM (inactive) | GI50 (NCI-H460): 25.5 µM (inactive) | GI50 (MCF7): 25.8 µM (inactive) | GI50 (HOP-92): 56.6 µM (inactive) | GI50 (HCT-15): 32.4 µM | GI50 (OVCAR-5): > 100 µM (inactive) | GI50 (EKVX): 43.7 µM (inactive) | GI50 (SK-OV-3): 41.4 µM (inactive) | GI50 (CCRF-CEM): 25.8 µM (inactive) | GI50 (DU-145): 48 µM (inactive) | GI50 (UACC-62): 33.8 µM (inactive) | GI50 (NCI-H522): 16.6 µM (inactive) | GI50 (SK-MEL-5): 15.2 µM (inactive) | GI50 (OVCAR-8): 37.4 µM (inactive) | GI50 (SF-295): 31.3 µM (inactive) | GI50 (K562): 30 µM (inactive) | GI50 (SR): 13 µM (inactive) | GI50 (SK-MEL-2): > 100 µM (inactive) | GI50 (Malme-3M): 67.1 µM (inactive) | GI50 (SNB-19): 35.6 µM (inactive) | GI50 (ACHN): 48.9 µM (inactive) | GI50 (HCT-116): 30.2 µM (inactive) | GI50 (NCI-H23): 52.1 µM (inactive) | GI50 (U-251): 43.9 µM (inactive) | GI50 (Hs-578T): 32.7 µM (inactive) | GI50 (TK-10): 59.3 µM (inactive) | GI50 (SK-MEL-28): 71.9 µM (inactive) | GI50 (HOP-62): 25.5 µM (inactive) | GI50 (NCI/ADR-RES): 34.9 µM (inactive) | GI50 (RPMI-8226): 22.8 µM (inactive) | GI50 (HT-29): 41.8 µM (inactive) | GI50 (CAKI-1): 25.7 µM (inactive) | GI50 (MDA-MB-435): 45.5 µM (inactive) | GI50 (SN12C): 41.3 µM (inactive) | GI50 (A549): 38.5 µM (inactive) | GI50 (T47D): 25.9 µM (inactive) | GI50 (M14): 72.8 µM (inactive) | GI50 (BT-549): 46.5 µM (inactive) | GI50 (COLO 205): 68.4 µM (inactive) | GI50 (SNB-75): 10.2 µM (inactive) | GI50 (MDA-MB-231): 77.4 µM (inactive) | GI50 (NCI-H226): > 100 µM (inactive)
